Like-named read-outs stand apart in the source and are kept apart here.
Tests used:
[1] = biological target: MEK6 (Homo sapiens, UniProt P52564); assay: KINOMEscan: MEK6; assay type: binding; conditions: 1000 nM, read-out: Percent Control
[2] = biological target: CSNK1G1 (Homo sapiens, UniProt Q9HCP0); assay: KINOMEscan: CSNK1G1; assay type: binding; conditions: 1000 nM, read-out: Percent Control
[3] = biological target: CAMK1B (Homo sapiens, UniProt Q6P2M8); assay: KINOMEscan: CAMK1B; assay type: binding; conditions: 1000 nM, read-out: Percent Control
[4] = biological target: MARK4 (Homo sapiens, UniProt Q96L34); assay: KINOMEscan: MARK4; assay type: binding; conditions: 1000 nM, read-out: Percent Control
[5] = biological target: CDK7/Cyclin H (Homo sapiens, UniProt P50613); assay: NanoBRET target engagement assay (HEK293); assay type: cell-based; design: host or cells: HEK293
Sequence of CDK7/Cyclin H (P50613 whole entry): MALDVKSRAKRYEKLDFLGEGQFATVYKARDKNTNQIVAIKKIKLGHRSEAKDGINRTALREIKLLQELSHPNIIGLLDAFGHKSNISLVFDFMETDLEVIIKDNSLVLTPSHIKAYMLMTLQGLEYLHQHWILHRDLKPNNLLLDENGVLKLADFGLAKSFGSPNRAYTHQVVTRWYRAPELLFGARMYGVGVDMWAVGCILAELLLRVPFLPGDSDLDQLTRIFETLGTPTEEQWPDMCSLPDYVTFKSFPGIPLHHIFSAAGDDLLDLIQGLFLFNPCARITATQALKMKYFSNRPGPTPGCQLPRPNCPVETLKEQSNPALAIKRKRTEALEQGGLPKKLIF
Sequence of CDK7/Cyclin H (P51946 whole entry partner): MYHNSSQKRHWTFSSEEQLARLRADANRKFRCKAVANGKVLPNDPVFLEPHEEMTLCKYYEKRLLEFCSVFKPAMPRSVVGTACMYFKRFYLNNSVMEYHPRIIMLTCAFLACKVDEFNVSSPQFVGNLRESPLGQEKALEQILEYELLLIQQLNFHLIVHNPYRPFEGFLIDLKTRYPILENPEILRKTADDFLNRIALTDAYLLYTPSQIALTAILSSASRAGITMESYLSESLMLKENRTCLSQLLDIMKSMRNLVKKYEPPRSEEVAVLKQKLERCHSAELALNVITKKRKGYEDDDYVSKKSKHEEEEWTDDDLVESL

[6] = biological target: YSK4 (Homo sapiens, UniProt Q56UN5); assay: KINOMEscan: YSK4; assay type: binding; conditions: 100 nM, read-out: Percent Control
[7] = biological target: FLT3(D835V) (Homo sapiens, UniProt P36888, D835V); assay: KINOMEscan: FLT3(D835V); assay type: binding; conditions: 1000 nM, read-out: Percent Control
[8] = biological target: CDK8 (Homo sapiens, UniProt P49336); assay: KINOMEscan: CDK8; assay type: binding; conditions: 1000 nM, read-out: Percent Control
[9] = biological target: Transporter, Serotonin (5-Hydroxytryptamine) (SERT) (Homo sapiens, UniProt P31645); assay: Eurofins Diversity Panel; assay type: binding; conditions: hum, Conc. 10 μM
[10] = biological target: CDK11 (Homo sapiens, UniProt Q9BWU1); assay: KINOMEscan: CDK11; assay type: binding; conditions: 1000 nM, read-out: Percent Control
[11] = biological target: CDK3 (Homo sapiens, UniProt Q00526); assay: KINOMEscan: CDK3; assay type: binding; conditions: 1000 nM, read-out: Percent Control
[12] = biological target: Nicotinic Acetylcholine α1, Bungarotoxin (Homo sapiens, UniProt P02708+P07510+Q07001); assay: Eurofins Diversity Panel; assay type: binding; conditions: read-out: % Inh.
[13] = biological target: RSK2(Kin.Dom.1-N-terminal) (Homo sapiens, UniProt P51812); assay: KINOMEscan: RSK2(Kin.Dom.1-N-terminal); assay type: binding; conditions: 100 nM, read-out: Percent Control
Sequence of RSK2(Kin.Dom.1-N-terminal) (P51812 1-397 limits assumed): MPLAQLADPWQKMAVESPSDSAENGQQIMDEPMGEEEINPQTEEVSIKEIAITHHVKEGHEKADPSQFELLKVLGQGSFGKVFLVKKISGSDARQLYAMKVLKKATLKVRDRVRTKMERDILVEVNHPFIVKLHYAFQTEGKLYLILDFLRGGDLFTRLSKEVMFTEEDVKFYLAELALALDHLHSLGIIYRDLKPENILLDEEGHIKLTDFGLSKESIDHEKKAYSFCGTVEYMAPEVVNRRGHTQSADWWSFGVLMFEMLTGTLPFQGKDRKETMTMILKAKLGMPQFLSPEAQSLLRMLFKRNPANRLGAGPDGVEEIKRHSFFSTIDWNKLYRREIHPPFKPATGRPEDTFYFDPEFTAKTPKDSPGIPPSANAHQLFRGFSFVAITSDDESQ

[14] = biological target: FGFR2 (Homo sapiens, UniProt P21802); assay: KINOMEscan: FGFR2; assay type: binding; conditions: 1000 nM, read-out: Percent Control
[15] = biological target: CAMK1G (Homo sapiens, UniProt Q96NX5); assay: KINOMEscan: CAMK1G; assay type: binding; conditions: 1000 nM, read-out: Percent Control
[16] = biological target: AXL (Homo sapiens, UniProt P30530); assay: KINOMEscan: AXL; assay type: binding; conditions: 1000 nM, read-out: Percent Control
[17] = biological target: LATS2 (Homo sapiens, UniProt Q9NRM7); assay: KINOMEscan: LATS2; assay type: binding; conditions: 1000 nM, read-out: Percent Control
[18] = biological target: MAST1 (Homo sapiens, UniProt Q9Y2H9); assay: KINOMEscan: MAST1; assay type: binding; conditions: 1000 nM, read-out: Percent Control
[19] = biological target: DMPK2 (Homo sapiens, UniProt Q6DT37); assay: KINOMEscan: DMPK2; assay type: binding; conditions: 1000 nM, read-out: Percent Control
[20] = biological target: MAP4K2 (Homo sapiens, UniProt Q12851); assay: KINOMEscan: MAP4K2; assay type: binding; conditions: 1000 nM, read-out: Percent Control
[21] = biological target: STK33 (Homo sapiens, UniProt Q9BYT3); assay: KINOMEscan: STK33; assay type: binding; conditions: 100 nM, read-out: Percent Control
[22] = tested on: MEC-1; assay: MTS proliferation assay; assay type: cell-based; conditions: Homo sapiens
[23] = biological target: EPHA4 (Homo sapiens, UniProt P54764); assay: KINOMEscan: EPHA4; assay type: binding; conditions: 1000 nM, read-out: Percent Control
[24] = biological target: ITK (Homo sapiens, UniProt Q08881); assay: KINOMEscan: ITK; assay type: binding; conditions: 1000 nM, read-out: Percent Control
[25] = biological target: TAOK2 (Homo sapiens, UniProt Q9UL54); assay: KINOMEscan: TAOK2; assay type: binding; conditions: 100 nM, read-out: Percent Control
[26] = biological target: LRRK2(G2019S) (Homo sapiens, UniProt Q5S007, G2019S); assay: KINOMEscan: LRRK2(G2019S); assay type: binding; conditions: 1000 nM, read-out: Percent Control
[27] = biological target: BMPR1A (Homo sapiens, UniProt P36894); assay: KINOMEscan: BMPR1A; assay type: binding; conditions: 1000 nM, read-out: Percent Control
[28] = biological target: ULK3 (Homo sapiens, UniProt Q6PHR2); assay: KINOMEscan: ULK3; assay type: binding; conditions: 100 nM, read-out: Percent Control
Sequence of ULK3 (Q6PHR2 whole entry): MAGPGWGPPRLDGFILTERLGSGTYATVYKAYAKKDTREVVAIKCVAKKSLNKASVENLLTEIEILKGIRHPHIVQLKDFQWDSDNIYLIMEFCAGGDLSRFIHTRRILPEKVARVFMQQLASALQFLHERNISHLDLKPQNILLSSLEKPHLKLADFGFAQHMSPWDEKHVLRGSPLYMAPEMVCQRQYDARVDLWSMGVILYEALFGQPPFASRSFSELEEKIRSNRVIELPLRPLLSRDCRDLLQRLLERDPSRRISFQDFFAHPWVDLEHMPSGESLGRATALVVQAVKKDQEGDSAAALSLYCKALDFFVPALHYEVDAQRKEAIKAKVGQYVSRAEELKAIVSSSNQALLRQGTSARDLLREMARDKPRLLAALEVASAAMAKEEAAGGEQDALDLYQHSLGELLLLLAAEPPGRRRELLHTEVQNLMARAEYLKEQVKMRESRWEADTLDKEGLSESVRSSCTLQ

[29] = biological target: Endothelin ETB (Homo sapiens, UniProt P24530); assay: Eurofins Diversity Panel; assay type: binding; conditions: hum, Conc. 10 μM
Sequence of Endothelin ETB (P24530 27-442): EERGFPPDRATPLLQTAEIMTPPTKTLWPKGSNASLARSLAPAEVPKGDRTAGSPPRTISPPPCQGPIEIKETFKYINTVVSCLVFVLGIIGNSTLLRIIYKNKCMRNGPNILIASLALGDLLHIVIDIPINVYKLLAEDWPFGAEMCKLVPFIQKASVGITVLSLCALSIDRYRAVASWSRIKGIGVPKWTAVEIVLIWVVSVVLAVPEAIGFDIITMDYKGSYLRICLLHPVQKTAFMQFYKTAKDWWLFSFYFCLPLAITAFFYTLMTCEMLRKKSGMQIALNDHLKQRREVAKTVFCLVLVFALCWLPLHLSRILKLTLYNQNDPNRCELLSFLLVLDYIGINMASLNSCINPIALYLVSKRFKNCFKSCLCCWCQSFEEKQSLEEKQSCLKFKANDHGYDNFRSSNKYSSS

[30] = biological target: GABAB1A (Homo sapiens, UniProt Q9UBS5); assay: Eurofins Diversity Panel; assay type: binding; conditions: hum, Conc. 10 μM
[31] = biological target: DCAMKL1 (Homo sapiens, UniProt O15075); assay: KINOMEscan: DCAMKL1; assay type: binding; conditions: 1000 nM, read-out: Percent Control
[32] = biological target: FER (Homo sapiens, UniProt P16591); assay: KINOMEscan: FER; assay type: binding; conditions: 1000 nM, read-out: Percent Control
Sequence of FER (P16591 whole entry): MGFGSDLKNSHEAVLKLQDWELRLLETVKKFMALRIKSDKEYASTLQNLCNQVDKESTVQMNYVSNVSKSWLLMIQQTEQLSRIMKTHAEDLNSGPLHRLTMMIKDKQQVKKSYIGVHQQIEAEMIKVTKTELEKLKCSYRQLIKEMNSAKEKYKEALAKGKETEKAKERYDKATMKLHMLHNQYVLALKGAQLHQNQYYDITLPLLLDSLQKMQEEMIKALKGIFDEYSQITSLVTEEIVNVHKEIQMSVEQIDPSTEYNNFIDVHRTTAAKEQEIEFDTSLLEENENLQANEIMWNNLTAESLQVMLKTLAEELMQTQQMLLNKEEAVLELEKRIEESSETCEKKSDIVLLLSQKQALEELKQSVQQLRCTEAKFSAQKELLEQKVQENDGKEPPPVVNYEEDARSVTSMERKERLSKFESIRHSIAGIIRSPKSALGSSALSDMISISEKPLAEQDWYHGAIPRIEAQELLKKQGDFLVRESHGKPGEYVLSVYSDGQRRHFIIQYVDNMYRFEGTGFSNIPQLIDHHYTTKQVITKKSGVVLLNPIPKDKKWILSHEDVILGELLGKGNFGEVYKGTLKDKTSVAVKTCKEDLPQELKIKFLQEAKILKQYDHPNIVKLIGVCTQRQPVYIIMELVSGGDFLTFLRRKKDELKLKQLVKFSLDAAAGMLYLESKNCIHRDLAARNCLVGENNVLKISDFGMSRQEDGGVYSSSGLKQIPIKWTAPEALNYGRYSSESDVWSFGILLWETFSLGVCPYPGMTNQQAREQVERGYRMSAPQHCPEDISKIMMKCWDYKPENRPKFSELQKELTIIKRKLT

[33] = biological target: MAK (Homo sapiens, UniProt P20794); assay: KINOMEscan: MAK; assay type: binding; conditions: 1000 nM, read-out: Percent Control
[34] = biological target: TRKC (Homo sapiens, UniProt Q16288); assay: KINOMEscan: TRKC; assay type: binding; conditions: 100 nM, read-out: Percent Control
[35] = biological target: CDK2 (Homo sapiens, UniProt P24941); assay: KINOMEscan: CDK2; assay type: binding; conditions: 1000 nM, read-out: Percent Control
[36] = biological target: TNNI3K (Homo sapiens, UniProt Q59H18); assay: KINOMEscan: TNNI3K; assay type: binding; conditions: 100 nM, read-out: Percent Control
Sequence of TNNI3K (Q59H18 whole entry): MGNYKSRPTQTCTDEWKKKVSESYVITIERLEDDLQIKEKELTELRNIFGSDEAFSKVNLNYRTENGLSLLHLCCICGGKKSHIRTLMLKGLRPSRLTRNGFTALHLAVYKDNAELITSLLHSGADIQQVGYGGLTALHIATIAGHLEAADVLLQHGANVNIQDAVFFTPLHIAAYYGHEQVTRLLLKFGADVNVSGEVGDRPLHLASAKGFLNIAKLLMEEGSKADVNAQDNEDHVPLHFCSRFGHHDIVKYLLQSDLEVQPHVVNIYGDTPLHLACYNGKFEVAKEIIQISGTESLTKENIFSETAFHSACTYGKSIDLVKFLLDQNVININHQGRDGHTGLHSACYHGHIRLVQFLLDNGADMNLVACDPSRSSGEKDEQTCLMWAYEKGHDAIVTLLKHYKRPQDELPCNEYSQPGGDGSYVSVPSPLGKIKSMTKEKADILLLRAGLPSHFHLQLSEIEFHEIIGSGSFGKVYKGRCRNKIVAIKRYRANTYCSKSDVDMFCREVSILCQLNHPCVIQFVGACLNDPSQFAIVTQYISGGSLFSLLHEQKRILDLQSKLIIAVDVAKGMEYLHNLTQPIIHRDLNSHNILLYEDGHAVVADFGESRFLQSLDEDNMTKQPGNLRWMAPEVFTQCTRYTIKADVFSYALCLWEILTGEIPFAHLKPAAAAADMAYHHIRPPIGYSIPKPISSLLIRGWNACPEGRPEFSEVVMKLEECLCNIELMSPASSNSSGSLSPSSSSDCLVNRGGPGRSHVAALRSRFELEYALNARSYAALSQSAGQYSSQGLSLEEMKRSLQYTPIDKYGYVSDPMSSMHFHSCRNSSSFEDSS

[37] = biological target: FGFR4 (Homo sapiens, UniProt P22455); assay: KINOMEscan: FGFR4; assay type: binding; conditions: 1000 nM, read-out: Percent Control
[38] = biological target: MLK2 (Homo sapiens, UniProt Q02779); assay: KINOMEscan: MLK2; assay type: binding; conditions: 1000 nM, read-out: Percent Control
Sequence of MLK2 (Q02779 whole entry): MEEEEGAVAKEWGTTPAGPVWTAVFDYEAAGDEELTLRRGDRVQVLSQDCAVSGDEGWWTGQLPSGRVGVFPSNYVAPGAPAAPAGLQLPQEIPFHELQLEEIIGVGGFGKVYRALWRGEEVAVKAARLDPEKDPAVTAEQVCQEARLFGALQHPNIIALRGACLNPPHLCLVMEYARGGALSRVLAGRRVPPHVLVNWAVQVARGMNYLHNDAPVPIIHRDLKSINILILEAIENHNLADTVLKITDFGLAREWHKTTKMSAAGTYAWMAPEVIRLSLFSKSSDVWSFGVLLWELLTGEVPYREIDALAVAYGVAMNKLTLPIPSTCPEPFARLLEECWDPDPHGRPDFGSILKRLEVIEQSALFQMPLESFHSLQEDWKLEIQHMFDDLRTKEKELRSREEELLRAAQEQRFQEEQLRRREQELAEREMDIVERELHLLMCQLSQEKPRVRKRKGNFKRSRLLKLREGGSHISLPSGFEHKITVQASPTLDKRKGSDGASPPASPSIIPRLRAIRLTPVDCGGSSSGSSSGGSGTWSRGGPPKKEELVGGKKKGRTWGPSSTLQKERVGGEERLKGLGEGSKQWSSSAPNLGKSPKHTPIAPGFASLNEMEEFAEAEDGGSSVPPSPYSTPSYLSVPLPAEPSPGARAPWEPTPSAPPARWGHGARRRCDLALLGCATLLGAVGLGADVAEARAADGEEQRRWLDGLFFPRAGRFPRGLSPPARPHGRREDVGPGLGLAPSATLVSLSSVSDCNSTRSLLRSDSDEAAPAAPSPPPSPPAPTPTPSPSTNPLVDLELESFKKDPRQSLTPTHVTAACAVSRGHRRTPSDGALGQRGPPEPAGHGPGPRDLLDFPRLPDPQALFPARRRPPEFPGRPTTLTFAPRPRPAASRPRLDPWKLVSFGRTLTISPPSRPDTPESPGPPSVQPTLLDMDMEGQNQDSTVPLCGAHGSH

[39] = biological target: FLT3 (Homo sapiens, UniProt P36888); assay: KINOMEscan: FLT3; assay type: binding; conditions: 1000 nM, read-out: Percent Control
[40] = biological target: Opiate δ1 (OP1, DOP) (Homo sapiens, UniProt P41143); assay: Eurofins Diversity Panel; assay type: binding; conditions: hum, Conc. 10 μM

Sequence of MEK6 (P52564 whole entry): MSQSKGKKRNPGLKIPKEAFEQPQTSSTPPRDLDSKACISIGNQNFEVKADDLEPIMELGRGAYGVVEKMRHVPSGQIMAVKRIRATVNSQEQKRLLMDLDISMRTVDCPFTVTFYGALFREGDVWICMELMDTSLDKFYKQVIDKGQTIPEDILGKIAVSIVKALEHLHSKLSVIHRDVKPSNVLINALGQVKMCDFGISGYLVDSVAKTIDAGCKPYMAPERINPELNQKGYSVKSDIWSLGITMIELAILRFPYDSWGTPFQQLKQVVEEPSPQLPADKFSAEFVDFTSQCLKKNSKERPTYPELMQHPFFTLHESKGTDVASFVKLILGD

Which remaining binding at 1 µM [1] does the source give for COc1cc(F)ccc1-c1cc(Nc2cc(CS(C)(=N)=O)ccn2)ncc1F (centres unmarked) [VIP152] here?
The remaining binding at 1 µM was 94%.

And the remaining binding at 1 µM [2]?
Its remaining binding at 1 µM is 91%.

And the remaining binding at 1 µM [3]?
The remaining binding at 1 µM was 98%.

And the remaining binding at 1 µM [4]?
The remaining binding at 1 µM was 88%.

What about the “IC50 compared with other inhibitors” value [5] of the same compound?
Its value is “IC50 was higher than dinaciclib and KB-0742”.

What about the remaining binding at 0.1 µM [6] of the same compound?
Its remaining binding at 0.1 µM is 100%.

And the remaining binding at 1 µM [7]?
The remaining binding at 1 µM was 15%.

What about the remaining binding at 1 µM [8] of the same compound?
Its remaining binding at 1 µM is 93%.

And the inhibition at 10 µM [9]?
Its inhibition at 10 µM is -3%.

What about the remaining binding at 1 µM [10] of the same compound?
The remaining binding at 1 µM was 100%.

And the remaining binding at 1 µM [11]?
Its remaining binding at 1 µM is 37%.

And the inhibition at 10 µM [12]?
The inhibition at 10 µM was 3%.

What about the remaining binding at 0.1 µM [13] of the same compound?
The remaining binding at 0.1 µM was 100%.

And the remaining binding at 1 µM [14]?
The remaining binding at 1 µM was 70%.

And the remaining binding at 1 µM [15]?
Its remaining binding at 1 µM is 89%.

What about the remaining binding at 1 µM [16] of the same compound?
Its remaining binding at 1 µM is 50%.

What about the remaining binding at 1 µM [17] of the same compound?
Its remaining binding at 1 µM is 97%.

And the remaining binding at 1 µM [18]?
The remaining binding at 1 µM was 81%.

What about the remaining binding at 1 µM [19] of the same compound?
The remaining binding at 1 µM was 88%.

What about the remaining binding at 1 µM [20] of the same compound?
The remaining binding at 1 µM was 26%.

What about the remaining binding at 0.1 µM [21] of the same compound?
The remaining binding at 0.1 µM was 88%.

What about the IC50 ([22]; MEC1, 24, 48, and 72 h, read-out: proliferation IC50) of the same compound?
Its IC50 is 150 to 1000 nM.

What about the IC50 ([22]; MEC1, two-hour drugging followed by washout, MTS after 72 h, read-out: 50% growth inhibition) of the same compound?
Its IC50 is 1700 nM.

What about the remaining binding at 1 µM [23] of the same compound?
Its remaining binding at 1 µM is 94%.

And the remaining binding at 1 µM [24]?
The remaining binding at 1 µM was 100%.

What about the remaining binding at 0.1 µM [25] of the same compound?
The remaining binding at 0.1 µM was 92%.

And the remaining binding at 1 µM [26]?
The remaining binding at 1 µM was 86%.

What about the remaining binding at 1 µM [27] of the same compound?
Its remaining binding at 1 µM is 97%.

What about the remaining binding at 0.1 µM [28] of the same compound?
The remaining binding at 0.1 µM was 96%.

What about the inhibition at 10 µM [29] of the same compound?
The inhibition at 10 µM was 3%.

And the inhibition at 10 µM [30]?
Its inhibition at 10 µM is 1%.

And the remaining binding at 1 µM [31]?
Its remaining binding at 1 µM is 86%.

What about the remaining binding at 1 µM [32] of the same compound?
The remaining binding at 1 µM was 97%.

What about the remaining binding at 1 µM [33] of the same compound?
Its remaining binding at 1 µM is 84%.

What about the remaining binding at 0.1 µM [34] of the same compound?
The remaining binding at 0.1 µM was 83%.

And the remaining binding at 1 µM [35]?
The remaining binding at 1 µM was 51%.

What about the remaining binding at 0.1 µM [36] of the same compound?
The remaining binding at 0.1 µM was 100%.

What about the remaining binding at 1 µM [37] of the same compound?
The remaining binding at 1 µM was 76%.

And the remaining binding at 1 µM [38]?
The remaining binding at 1 µM was 100%.

What about the remaining binding at 1 µM [39] of the same compound?
The remaining binding at 1 µM was 38%.

And the inhibition at 10 µM [40]?
Its inhibition at 10 µM is 9%.

— article PMC9898036, “VIP152 is a selective CDK9 inhibitor with pre-clinical in vitro and in vivo efficacy in chronic lymphocytic leukemia” (Leukemia, 2022)
